Series [1] can be described thus: Test Example 13: stability in pure water. It counts as physicochemical. On the procedure:
Test on Stability in Pure Water
(§1) A test compound is prepared in pure water to be in the saturated state. This solution is shaken for one hour at room temperature. After the shaking, the entire amount of the solution is transferred into a filter tube, and the solution is filtered by centrifugation. The filtrate is analyzed by HPLC immediately after filtration, 24 hours after filtration, and 48 hours after filtration. The stability of the test compound is determined using a calibration curve, based on the peak area value.
A standard solution is prepared by precisely weighing each test compound, and preparing a solution that sufficiently dissolves in pure water. The calibration curve is produced by assigning the concentration of the standard solution to the horizontal axis, and assigning the HPLC area peak at the concentration to the vertical axis.
YMC-Pack C18 (4.6 mm×150 mm) (manufactured by YMC Co., Ltd.) is used as a separating column. The detection is performed with UV-254 nm. The temperature in the column is set at 40° C. Elution is carried out at a flow rate of 1 ml/min, using solution A=water [containing 0.1% (v/v) acetic acid] and solution B=acetonitrile as the solvents, under the conditions in which a linear gradient of the solution B is run from 5 to 98% (v/v) from zero minute to 20 minute, subsequently solution B is eluted at 98% up to 25 minute, and the solution B is eluted at 5% from 25.01 minute to 35 minute.

Series [2] is described as follows: Test Example 14: stability in phosphate buffer solution at pH 6.8. It counts as physicochemical. The method, then:
as §1
Test on Stability in Phosphate Buffer Solution at pH 6.8
The stability of a test compound is determined by performing the same test as that performed in Test Example 13, except that the pure water is changed to a phosphate buffer solution at pH 6.8.

Structures are written as SMILES.

HPLC area percent data for 3 compounds are collected here from US8008506B2, “Indazole compounds” (priority 2008, dated 2011).

Consider `CC(C)c1n[nH]c2cc(OCCNC[C@H](O)c3cccc(NS(C)(=O)=O)c3)ccc12` [Example 1, (R)-N-(3-(1-hydroxy-2-(2-(3-isopropylindazol-6-yloxy)ethylamino)ethyl)phenyl)methanesulfonamide], for which the HPLC area percent in series [1] (after 24 hours) is given as 99.8%; in series [1] (after 48 hours), 99.8%; in series [1] (immediately after filtration), 100%; in series [2] (after 24 hours), 99.9%; in series [2] (after 48 hours) it was 100%; in series [2] (immediately after filtration), 99.8%.
Turning to `CCc1n[nH]c2cc(OCCNC[C@H](O)c3cccc(NS(C)(=O)=O)c3)ccc12` [Example 2, (R)-N-(3-(1-hydroxy-2-(2-(3-ethylindazol-6-yloxy)ethylamino)ethyl)phenyl)methanesulfonamide], the HPLC area percent in series [1] (after 24 hours), in series [1] (after 48 hours), in series [1] (immediately after filtration), in series [2] (after 24 hours), in series [2] (after 48 hours) and in series [2] (immediately after filtration) was 98.2% in each case.
As for `CS(=O)(=O)Nc1cccc([C@@H](O)CNCCOc2ccc3c(C(F)(F)F)n[nH]c3c2)c1` [Example 4, (R)-N-(3-(1-hydroxy-2-(2-(3-trifluoromethylindazol-6-yloxy)ethylamino)ethyl)phenyl)methanesulfonamide], the HPLC area percent in series [1] (after 24 hours) worked out at 98.7%; in series [1] (after 48 hours), 98.6%; in series [1] (immediately after filtration) it was 98.7%; in series [2] (after 24 hours) it was 99.6%; in series [2] (after 48 hours), 99.6%; in series [2] (immediately after filtration), 99.6%.
